From patent US6737383B1, “Herbicidal oxadiazolidines” (priority 1999, dated 2004)

Key:
wild oat = assay: Test B pre/postemergence wild oat; type: in vivo, Avena fatua
How it was run: (§1)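 Response is a visual 0-to-10 score relative to untreated plants, where 0 means no effect and 10 means complete control, taken twelve to sixteen days after application. Treatments went onto soil at planting and onto foliage of 1- to 4-leaf plants, using a surfactant-containing non-phytotoxic solvent.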

crabgrass = assay: Test B pre/postemergence crabgrass; type: in vivo, Digitaria sanguinalis
How it was run: as §1

wheat = assay: Test B pre/postemergence wheat; type: in vivo, Triticum aestivum
How it was run: as §1

bamyardgrass = assay: Test B flood test barnyardgrass; type: in vivo, Echinochloa crus-galli
How it was run: (§2)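 Read-out is a visual response score from 0 (no effect) to 10 (complete control), assigned by comparison with untreated controls. Treatment was applied at the 2-leaf stage, and plants stayed in the greenhouse for twelve to sixteen days before scoring.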

corn = assay: Test B pre/postemergence corn; type: in vivo, Zea mays
How it was run: as §1

cocklebur = assay: Test B pre/postemergence cocklebur; type: in vivo, Xanthium strumarium
How it was run: as §1

smallflower flatsedge = assay: Test B flood test smallflower flatsedge; type: in vivo, Cyperus difformis
How it was run: as §2

purple nutsedge = assay: Test B pre/postemergence purple nutsedge; type: in vivo, Cyperus rotundus
How it was run: as §1

velvetleaf = assay: Test B pre/postemergence velvetleaf; type: in vivo, Abutilon theophrasti
How it was run: as §1

blackgrass = assay: Test B pre/postemergence blackgrass; type: in vivo, Alopecurus myosuroides
How it was run: as §1

duck salad = assay: Test B flood test duck salad; type: in vivo, Heteranthera limosa
How it was run: as §2

rice = assay: Test B flood test rice; type: in vivo, Oryza sativa
How it was run: as §2

giant foxtail = assay: Test B pre/postemergence giant foxtail; type: in vivo, Setaria faberii
How it was run: as §1

bedstraw = assay: Test B pre/postemergence bedstraw; type: in vivo, Galium aparine; conditions: Postemergence
How it was run: as §1

pigweed = assay: Test B pre/postemergence pigweed; type: in vivo, Amaranthus retroflexus
How it was run: as §1

rape = assay: Test B pre/postemergence rape; type: in vivo, Brassica napus
How it was run: as §1

morningglory = assay: Test B pre/postemergence morningglory; type: in vivo, Ipomoea hederacea
How it was run: as §1

surinam grass = assay: Test B pre/postemergence surinam grass; type: in vivo, Brachiaria decumbens
How it was run: as §1

sugar beet = assay: Test B pre/postemergence sugar beet; type: in vivo, Beta vulgaris
How it was run: as §1

soybean = assay: Test B pre/postemergence soybean; type: in vivo, Glycine max
How it was run: as §1

[1] = Postemergence, Rate 500 g/ha, scale of 0 to 10 where 0 is no effect and 10 is complete control
[2] = Preemergence, Rate 62 g/ha, scale 0 to 10 (0 no effect, 10 complete control)
[3] = Preemergence, Rate 125 g/ha, scale of 0 to 10 where 0 is no effect and 10 is complete control
[4] = Preemergence, Rate 250 g/ha, scale 0 to 10, 0 is no effect, 10 is complete control
[5] = Preemergence, Rate 500 g/ha, scale 0 to 10, 0 is no effect, 10 is complete control
[6] = Postemergence, Rate 125 g/ha, scale 0 to 10, 0 is no effect, 10 is complete control
[7] = Postemergence, Rate 250 g/ha, scale 0 to 10, 0 is no effect, 10 is complete control
[8] = Rate 62 g/ha, Postemergence, scale of 0 to 10 where 0 is no effect and 10 is complete control
[9] = Rate 62 g/ha, flood test species, Pre-emergence, visual evaluation after twelve to sixteen days
[10] = Rate 125 g/ha, under heading Pre-emergence, flood test species, visual evaluation after twelve to sixteen days
[11] = Rate 250 g/ha, Pre-emergence, flood-test species, scale 0 to 10, 0 is no effect, 10 is complete control
[12] = Rate 500 g/ha, Pre-emergence, flood test species, scale 0 to 10 (0 no effect, 10 complete control)
[13] = Preemergence, Rate 250 g/ha, scale of 0 to 10 where 0 is no effect and 10 is complete control

CC(C)N(C(=O)n1oc(=O)n(C(C)CCl)c1=O)c1ccccc1 (centres unmarked) [Compound 411]
Wild oats plant response rating (wild oat; [1]): 9 | Plant response rating, Wild oats (wild oat; [2]): 0 | Plant response rating, Wild oats (wild oat; [3]): 5 | Wild oats plant response rating (wild oat; [4]): 8 | Wild oats plant response rating (wild oat; [5]): 10 | Plant response rating, Crabgrass (crabgrass; [6]): 4 | Plant response rating, Crabgrass (crabgrass; [7]): 8 | Crabgrass plant response rating (crabgrass; [1]): 8 | Plant response rating, Crabgrass (crabgrass; [2]): 9 | Plant response rating, Crabgrass (crabgrass; [3]): 10 | Crabgrass plant response rating (crabgrass; [4]): 10 | Crabgrass plant response rating (crabgrass; [5]): 10 | Crabgrass plant response rating (crabgrass; [8]): 4 | Wheat plant response rating (wheat; [1]): 8 | Plant response rating, Wheat (wheat; [2]): 0 | Plant response rating, Wheat (wheat; [3]): 4 | Wheat plant response rating (wheat; [4]): 7 | Wheat plant response rating (wheat; [5]): 10 | Plant response rating, Barnyardgrass (0 to 10 scale, 0 is no effect, 10 is complete control) (bamyardgrass; [9]): 0 | Barnyardgrass plant response rating (0 to 10 scale, 0 is no effect, 10 is complete control) (bamyardgrass; [10]): 8 | Barnyardgrass plant response rating (bamyardgrass; [11]): 9 | Barnyardgrass plant response rating (bamyardgrass; [12]): 9 | Plant response rating, Corn (corn; [6]): 0 | Plant response rating, Corn (corn; [7]): 0 | Corn plant response rating (corn; [1]): 4 | Plant response rating, Corn (corn; [2]): 0 | Plant response rating, Corn (corn; [3]): 2 | Corn plant response rating (corn; [4]): 8 | Corn plant response rating (corn; [5]): 9 | Corn plant response rating (corn; [8]): 0 | Plant response rating, Cocklebur (cocklebur; [6]): 1 | Plant response rating, Cocklebur (cocklebur; [7]): 3 | Cocklebur plant response rating (cocklebur; [1]): 3 | Plant response rating, Cocklebur (cocklebur; [2]): 0 | Plant response rating, Cocklebur (cocklebur; [3]): 0 | Cocklebur plant response rating (cocklebur; [4]): 0 | Cocklebur plant response rating (cocklebur; [5]): 0 | Cocklebur plant response rating (cocklebur; [8]): 1 | Plant response rating, S. Flatsedge (0 to 10 scale, 0 is no effect, 10 is complete control) (smallflower flatsedge; [9]): 0 | S. Flatsedge plant response rating (0 to 10 scale, 0 is no effect, 10 is complete control) (smallflower flatsedge; [10]): 0 | S. Flatsedge plant response rating (smallflower flatsedge; [11]): 9 | S. Flatsedge plant response rating (smallflower flatsedge; [12]): 9 | Plant response rating, Nutsedge (purple nutsedge; [7]): 0 | Nutsedge plant response rating (purple nutsedge; [1]): 0 | Plant response rating, Nutsedge (purple nutsedge; [2]): 0 | Plant response rating, Nutsedge (purple nutsedge; [3]): 0 | Nutsedge plant response rating (purple nutsedge; [4]): 0 | Nutsedge plant response rating (purple nutsedge; [5]): 2 | Plant response rating, Velvetleaf (velvetleaf; [7]): 4 | Velvetleaf plant response rating (velvetleaf; [1]): 6 | Plant response rating, Velvetleaf (velvetleaf; [2]): 2 | Plant response rating, Velvetleaf (velvetleaf; [3]): 5 | Velvetleaf plant response rating (velvetleaf; [4]): 6 | Velvetleaf plant response rating (velvetleaf; [5]): 8 | Plant response rating, Blackgrass (blackgrass; [7]): 9 | Blackgrass plant response rating (blackgrass; [1]): 9 | Plant response rating, Blackgrass (blackgrass; [2]): 6 | Plant response rating, Blackgrass (blackgrass; [3]): 7 | Blackgrass plant response rating (blackgrass; [13]): 9 | Blackgrass plant response rating (blackgrass; [5]): 10 | Plant response rating, Ducksalad (0 to 10 scale, 0 is no effect, 10 is complete control) (duck salad; [9]): 0 | Ducksalad plant response rating (0 to 10 scale, 0 is no effect, 10 is complete control) (duck salad; [10]): 0 | Ducksalad plant response rating (duck salad; [11]): 2 | Ducksalad plant response rating (duck salad; [12]): 2 | Plant response rating, Rice (0 to 10 scale, 0 is no effect, 10 is complete control) (rice; [9]): 0 | Rice plant response rating (0 to 10 scale, 0 is no effect, 10 is complete control) (rice; [10]): 0 | Rice plant response rating (rice; [11]): 0 | Rice plant response rating (rice; [12]): 0 | Plant response rating, Giant foxtail (giant foxtail; [6]): 9 | Plant response rating, Giant foxtail (giant foxtail; [7]): 9 | Giant foxtail plant response rating (giant foxtail; [1]): 9 | Plant response rating, Giant foxtail (giant foxtail; [2]): 10 | Plant response rating, Giant foxtail (giant foxtail; [3]): 10 | Giant foxtail plant response rating (giant foxtail; [4]): 10 | Giant foxtail plant response rating (giant foxtail; [5]): 10 | Giant foxtail plant response rating (giant foxtail; [8]): 6 | Plant response rating, Bedstraw (bedstraw; Rate 250 g/ha, scale 0 to 10, 0 is no effect, 10 is complete control): 7 | Bedstraw plant response rating (bedstraw; Rate 500 g/ha, scale of 0 to 10 where 0 is no effect and 10 is complete control): 8 | Plant response rating, Redroot pigweed (pigweed; [7]): 7 | Redroot pigweed plant response rating (pigweed; [1]): 9 | Plant response rating, Redroot pigweed (pigweed; [2]): 3 | Plant response rating, Redroot pigweed (pigweed; [3]): 8 | Redroot pigweed plant response rating (pigweed; [4]): 10 | Redroot pigweed plant response rating (pigweed; [5]): 10 | Plant response rating, Rape (rape; [7]): 7 | Rape plant response rating (rape; [1]): 8 | Plant response rating, Rape (rape; [2]): 2 | Plant response rating, Rape (rape; [3]): 8 | Rape plant response rating (rape; [4]): 9 | Rape plant response rating (rape; [5]): 10 | Plant response rating, Morningglory (morningglory; [7]): 6 | Morningglory plant response rating (morningglory; [1]): 6 | Plant response rating, Morningglory (morningglory; [2]): 0 | Plant response rating, Morningglory (morningglory; [3]): 1 | Morningglory plant response rating (morningglory; [4]): 2 | Morningglory plant response rating (morningglory; [5]): 4 | Plant response rating, B. signalgrass (surinam grass; [6]): 3 | Plant response rating, B. signalgrass (surinam grass; [7]): 5 | B. signalgrass plant response rating (surinam grass; [1]): 9 | Plant response rating, B. signalgrass (surinam grass; [2]): 0 | Plant response rating, B. signalgrass (surinam grass; [3]): 3 | B. signalgrass plant response rating (surinam grass; [13]): 7 | B. signalgrass plant response rating (surinam grass; Preemergence, Rate 500 g/ha, scale of 0 to 10 where 0 is no effect and 10 is complete control): 10 | B. signalgrass plant response rating (surinam grass; [8]): 0 | Plant response rating, Sugarbeets (sugar beet; [7]): 4 | Sugarbeets plant response rating (sugar beet; [1]): 7 | Plant response rating, Sugarbeets (sugar beet; [2]): 5 | Plant response rating, Sugarbeets (sugar beet; [3]): 8 | Sugarbeets plant response rating (sugar beet; [4]): 8 | Sugarbeets plant response rating (sugar beet; [5]): 8 | Plant response rating, Soybean (soybean; [7]): 5 | Soybean plant response rating (soybean; [1]): 7 | Plant response rating, Soybean (soybean; [2]): 0 | Plant response rating, Soybean (soybean; [3]): 0 | Soybean plant response rating (soybean; [4]): 0 | Soybean plant response rating (soybean; [5]): 1
